Earlier results as cited in US20040097717A1, “Control of aerial branching” (priority 2000, published 2004).

Legend:
Phaseolus vulgaris = conditions: decapitated Phaseolus vulgaris, IAA application (Knox and Wareing, 1984)
lateral buds = conditions: exogenous application to lateral buds (Tames et al., 1979)

SMILES	lateral bud elongation / decrease in ABA level after decapitation (Phaseolus vulgaris)	lateral bud elongation (lateral buds)
O=C(O)Cc1c[nH]c2ccccc12 [IAA]	reversed	
CC1=CC(=O)CC(C)(C)[C@@]1(O)/C=C/C(C)=C\C(=O)O [ABA, abscisic acid]		inhibited elongation
